This is an account of results in PubChem BioAssay (NCI).

Among the test systems are OVCAR-8 ovarian; HCC-2998 colon; COLO 205 colon; NCI-H23 lung; LOX IMVI melanoma; M14 melanoma; SK-OV-3 ovarian; UACC-257 melanoma; UO-31 renal; A498 renal.
Holding throughout (assay): inhibition of tumour cell growth, NCI panel, 48 h

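Dose response: 5 concentrations. Exposure: 48 h. Format: 96-well plates. Endpoint: linear interpolation; highest concentration if not reached. At the GI50, growth is halved. TGI is the concentration that stops growth completely.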 Some results are limits rather than exact numbers.

For `OC(c1ccccc1)(c1ccccc1)c1ccncc1`, the TGI in the experiment on OVCAR-8 ovarian, in the experiment with HCC-2998 colon, with COLO 205 colon, in the experiment on NCI-H23 lung, in the experiment on LOX IMVI melanoma and in the experiment with M14 melanoma was over 100 µM in each case. Also, the TGI with SK-OV-3 ovarian, in the experiment with UACC-257 melanoma and with UO-31 renal was over 100 µM throughout.

Take `CCC1C2Cc3ccc(O)cc3C1(CC)CCN2C` (stereo not drawn): the TGI with OVCAR-8 ovarian, with COLO 205 colon, with NCI-H23 lung, in the experiment on LOX IMVI melanoma, in the experiment with M14 melanoma and in the experiment on A498 renal was over 100 µM in each case. In addition, the TGI in the experiment with SK-OV-3 ovarian, in the experiment with UACC-257 melanoma and in the experiment on UO-31 renal was over 100 µM in each case.

With `O=C1c2ccccc2C(O)(O)C1(O)C1(O)C(=O)c2ccccc2C1(O)O` (stereo not drawn), the TGI is over 100 µM in the experiment on OVCAR-8 ovarian; 40.5 µM in the experiment on COLO 205 colon; 38.2 µM in the experiment on NCI-H23 lung; 58.3 µM in the experiment with LOX IMVI melanoma; over 100 µM in the experiment on M14 melanoma; over 100 µM in the experiment with A498 renal. The TGI is over 100 µM with SK-OV-3 ovarian and 48.7 µM in the experiment with UO-31 renal.

`CCCCNc1nc(C#N)c(N)s1`: the TGI in the experiment with OVCAR-8 ovarian, in the experiment with HCC-2998 colon, in the experiment with COLO 205 colon, in the experiment with NCI-H23 lung, in the experiment on LOX IMVI melanoma and in the experiment on M14 melanoma was over 100 µM each time. Also, the TGI with SK-OV-3 ovarian, in the experiment with UACC-257 melanoma and with UO-31 renal was over 100 µM throughout.

On to `CC(C)C1CC[C@@H](C)C[C@@]1(O)CC(N)=O` (stereo partly drawn), for which the TGI in the experiment on OVCAR-8 ovarian, in the experiment on HCC-2998 colon, in the experiment on COLO 205 colon, in the experiment with NCI-H23 lung, with M14 melanoma and in the experiment with SK-OV-3 ovarian was over 100 µM throughout. Moreover, the TGI with UACC-257 melanoma and in the experiment with UO-31 renal was over 100 µM in each case.

In the case of `O=C(O)C(/C=C/c1ccccc1)c1ccccc1` (stereo not drawn), the TGI in the experiment with OVCAR-8 ovarian, in the experiment with COLO 205 colon, in the experiment with NCI-H23 lung, in the experiment with LOX IMVI melanoma, in the experiment with M14 melanoma and in the experiment with A498 renal was over 100 µM throughout. For the same compound, the TGI with SK-OV-3 ovarian, with UACC-257 melanoma and with UO-31 renal was over 100 µM each time.

In the case of `Nc1ccnc(=O)[nH]1`, the TGI in the experiment on OVCAR-8 ovarian, in the experiment with COLO 205 colon, in the experiment on LOX IMVI melanoma, in the experiment with M14 melanoma, with A498 renal and in the experiment on SK-OV-3 ovarian was over 100 µM each time. For the same compound, the TGI in the experiment with UACC-257 melanoma and in the experiment with UO-31 renal was over 100 µM in each case.

As for `COC(=O)C1(C)CCC(c2ccc(C)cc2)=C(CC(=O)O)C1` (stereo not drawn), the TGI in the experiment on OVCAR-8 ovarian, in the experiment on COLO 205 colon, in the experiment on NCI-H23 lung, in the experiment with LOX IMVI melanoma, with M14 melanoma and with A498 renal was over 100 µM in each case. In addition, the TGI with SK-OV-3 ovarian and with UACC-257 melanoma was over 100 µM throughout.

For the compound `CCOc1ccc2c(c1)[n+]([O-])c(-c1ccc(Cl)cc1)c(N)[n+]2[O-]`, the TGI with OVCAR-8 ovarian, in the experiment on COLO 205 colon, in the experiment with NCI-H23 lung, in the experiment on M14 melanoma, in the experiment with A498 renal and in the experiment with SK-OV-3 ovarian was over 100 µM each time. Moreover, the TGI with UACC-257 melanoma and in the experiment on UO-31 renal was over 100 µM throughout.

Consider `Fc1ccc2c(c1)C1=NN(c3ccccc3)C(F)C1CO2` (stereo not drawn), for which the GI50 in the experiment with OVCAR-8 ovarian was 9.04 µM; in the experiment with NCI-H23 lung it was 11.2 µM; with LOX IMVI melanoma, 10.5 µM; in the experiment with M14 melanoma it was 8.16 µM; in the experiment with A498 renal, 11.4 µM; in the experiment with SK-OV-3 ovarian, 25.3 µM. Besides, the GI50 in the experiment with UACC-257 melanoma is 9.7 µM; in the experiment with UO-31 renal, 13.3 µM. The TGI amounted to 27.3 µM in the experiment on OVCAR-8 ovarian; 30.9 µM with COLO 205 colon; 26.7 µM with NCI-H23 lung; 24.1 µM in the experiment with LOX IMVI melanoma; 18.6 µM with M14 melanoma; 21 µM in the experiment with A498 renal. Besides, the TGI in the experiment with SK-OV-3 ovarian is over 50 µM; in the experiment with UACC-257 melanoma, 26.5 µM; in the experiment with UO-31 renal it was over 50 µM.

For the compound `COC(=O)/C(C)=C(/CCC1(C)OCCO1)O[Si](C)(C)C`, the TGI in the experiment on OVCAR-8 ovarian, in the experiment on HCC-2998 colon, in the experiment on COLO 205 colon, with NCI-H23 lung, in the experiment on LOX IMVI melanoma and with M14 melanoma was over 100 µM each time. The TGI in the experiment with SK-OV-3 ovarian, in the experiment on UACC-257 melanoma and with UO-31 renal was over 100 µM throughout.

As to `CN(CCCn1c2c(c3ccccc3c1=O)C(=O)c1ccccc1-2)CCCn1c2c(c3ccccc3c1=O)C(=O)c1ccccc1-2`, the GI50 was 0.385 µM with HCC-2998 colon; 1.64 µM in the experiment on COLO 205 colon; 0.249 µM with NCI-H23 lung; 2.31 µM with M14 melanoma; 11.4 µM in the experiment on A498 renal; 5.45 µM in the experiment on SK-OV-3 ovarian. Besides, the GI50 in the experiment with UACC-257 melanoma was 21.6 µM; in the experiment on UO-31 renal, 1.42 µM. Also, the TGI was 9.46 µM in the experiment on HCC-2998 colon; over 45.7 µM in the experiment with COLO 205 colon; 5.25 µM in the experiment on NCI-H23 lung; over 22.6 µM in the experiment on M14 melanoma; 74.3 µM in the experiment on A498 renal; 19.7 µM with SK-OV-3 ovarian. Further, the TGI in the experiment with UACC-257 melanoma is over 73.2 µM; in the experiment on UO-31 renal it was 6.26 µM.

Turning to `COc1ccc(/C(COc2ccc3c(=O)cc(-c4ccccc4)oc3c2)=N\O)cc1`, the GI50 is 21.4 µM in the experiment on OVCAR-8 ovarian; 16.5 µM with HCC-2998 colon; 26.5 µM in the experiment with COLO 205 colon; 29.5 µM in the experiment with NCI-H23 lung; 9.4 µM in the experiment on LOX IMVI melanoma; 29.1 µM in the experiment with M14 melanoma. Further, the values for the GI50 in the experiment with SK-OV-3 ovarian, in the experiment on UACC-257 melanoma and in the experiment on UO-31 renal were 16.1 µM, 19.6 µM and 13.5 µM, respectively. Further, the TGI was over 35.5 µM in the experiment on OVCAR-8 ovarian; over 50 µM with HCC-2998 colon; over 50 µM with COLO 205 colon; over 50 µM in the experiment with NCI-H23 lung; 24.4 µM in the experiment with LOX IMVI melanoma; over 50 µM with M14 melanoma. The results for the TGI in the experiment with SK-OV-3 ovarian, with UACC-257 melanoma and with UO-31 renal were 48.4 µM, over 35.5 µM and over 50 µM, respectively.

`COc1cc2c(cc1C)NC(=O)/C2=C/c1ccccn1`: the GI50 in the experiment on OVCAR-8 ovarian is 3.14 µM; in the experiment with COLO 205 colon, 4.23 µM; in the experiment on NCI-H23 lung it was 2.76 µM; in the experiment on LOX IMVI melanoma it was 3.25 µM; with M14 melanoma it was 3.8 µM; with A498 renal, 3.61 µM. The GI50 in the experiment with SK-OV-3 ovarian was 3.41 µM; in the experiment with UACC-257 melanoma, 13.1 µM; in the experiment with UO-31 renal, 12.2 µM. Also, the TGI is over 100 µM in the experiment on OVCAR-8 ovarian; over 100 µM with COLO 205 colon; 9.1 µM with NCI-H23 lung; 10.4 µM with LOX IMVI melanoma; over 100 µM in the experiment with M14 melanoma; 8.25 µM in the experiment on A498 renal. Further, the TGI with SK-OV-3 ovarian, with UACC-257 melanoma and in the experiment with UO-31 renal was over 100 µM throughout.

Consider `CP1(=O)CCCCC1`, for which the TGI with OVCAR-8 ovarian, in the experiment with HCC-2998 colon, with COLO 205 colon, with NCI-H23 lung, in the experiment with LOX IMVI melanoma and with M14 melanoma was over 100 µM in each case. Also, the TGI with SK-OV-3 ovarian, in the experiment on UACC-257 melanoma and in the experiment on UO-31 renal was over 100 µM in each case.

`N#CC(NC12CC3CC(CC(C3)C1)C2)c1ccc2c(c1)OCO2` (stereo not drawn): the TGI with OVCAR-8 ovarian, in the experiment on HCC-2998 colon, in the experiment on COLO 205 colon, in the experiment with NCI-H23 lung, in the experiment with LOX IMVI melanoma and in the experiment with M14 melanoma was over 100 µM each time. Further, the TGI with SK-OV-3 ovarian, in the experiment on UACC-257 melanoma and in the experiment with UO-31 renal was over 100 µM in each case.

Regarding `CC(=O)OCC1OC(n2cnc(C(N)=S)c2N)C(OC(C)=O)C1OC(C)=O` (stereo not drawn), the TGI in the experiment with OVCAR-8 ovarian, with HCC-2998 colon, in the experiment on COLO 205 colon, in the experiment on NCI-H23 lung, in the experiment with LOX IMVI melanoma and in the experiment on M14 melanoma was over 100 µM in each case. Besides, the TGI with SK-OV-3 ovarian, in the experiment on UACC-257 melanoma and in the experiment on UO-31 renal was over 100 µM throughout.

On to `COc1ccc2n[se]nc2c1`, for which the TGI in the experiment on OVCAR-8 ovarian, in the experiment on HCC-2998 colon, with COLO 205 colon, in the experiment on NCI-H23 lung, in the experiment on LOX IMVI melanoma and in the experiment on M14 melanoma was over 100 µM in each case. The TGI with SK-OV-3 ovarian, with UACC-257 melanoma and in the experiment with UO-31 renal was over 100 µM throughout.

`COc1ccc(Br)c(N/N=C2\CCCNC2=O)c1`: the TGI in the experiment with OVCAR-8 ovarian, in the experiment with HCC-2998 colon, in the experiment on COLO 205 colon, in the experiment on NCI-H23 lung, in the experiment with LOX IMVI melanoma and with M14 melanoma was over 100 µM throughout. In addition, the TGI in the experiment with SK-OV-3 ovarian, in the experiment with UACC-257 melanoma and in the experiment with UO-31 renal was over 100 µM in each case.

For the compound `COc1cc(OC(=O)c2ccccc2)cc2c1C(=O)C=CC2=O`, the TGI with OVCAR-8 ovarian worked out at 63.3 µM; with COLO 205 colon, 33.7 µM; in the experiment with NCI-H23 lung, 33.3 µM; in the experiment on LOX IMVI melanoma it was 36.3 µM; in the experiment with M14 melanoma, 32.5 µM; in the experiment with A498 renal, 37.8 µM. Further, the figures for the TGI in the experiment on SK-OV-3 ovarian, in the experiment on UACC-257 melanoma and in the experiment with UO-31 renal were 37 µM, 31.6 µM and 22.8 µM, respectively.
